Reference: the supplement of paper PMC10307832

Key:
Test in all cases: relative viability (nuclei count vs DMSO), 5 days (fraction); higher = more cells survive
RAF265 + AZD7762 = compound: Cn1c(Nc2ccc(C(F)(F)F)cc2)nc2cc(Oc3ccnc(-c4ncc(C(F)(F)F)[nH]4)c3)ccc21 [RAF265] + NC(=O)Nc1cc(-c2cccc(F)c2)sc1C(=O)N[C@H]1CCCNC1 [AZD7762] (partner 0.2 µM)
Outline: (§1)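 Relative viability divides the nuclei count in treated wells by that in vehicle wells. Lung cancer cell lines were seeded in 1536-well plates, dosed by pin tool the next day, and fixed and stained after 5 days in one step with final 0.05% Triton X-100, 1% formaldehyde and 1 ug/ml Hoechst. Dosing was a single drug or a fixed anchor-drug dose plus five library-drug doses (not always all listed) in √10 steps, and values are medians of duplicate plates imaged at 4×.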

Doramapimod + Navitoclax = compound: Cc1ccc(-n2nc(C(C)(C)C)cc2NC(=O)Nc2ccc(OCCN3CCOCC3)c3ccccc23)cc1 [Doramapimod] + CC1(C)CCC(c2ccc(Cl)cc2)=C(CN2CCN(c3ccc(C(=O)NS(=O)(=O)c4ccc(N[C@H](CCN5CCOCC5)CSc5ccccc5)c(S(=O)(=O)C(F)(F)F)c4)cc3)CC2)C1 [Navitoclax] (partner 0.5 µM)
Outline: as §1

IPA-3 + Dasatinib = compound: C1=CC=C2C(=C1)C=CC(=C2SSC3=C(C=CC4=CC=CC=C43)O)O [IPA-3] + Cc1nc(Nc2ncc(C(=O)Nc3c(C)cccc3Cl)s2)cc(N2CCN(CCO)CC2)n1 [Dasatinib] (partner 0.075 µM)
Outline: as §1

[1] = compound: Cc1ccc(-n2nc(C(C)(C)C)cc2NC(=O)Nc2ccc(OCCN3CCOCC3)c3ccccc23)cc1 [Doramapimod] + CC(=O)c1c(C)c2cnc(Nc3ccc(N4CCNCC4)cn3)nc2n(C2CCCC2)c1=O [Palbociclib] (partner 0.5 µM)
Outline: as §1

Cell Line	relative viability (RAF265 + AZD7762; first compound 0.01 µM)	relative viability (RAF265 + AZD7762; first compound 0.03162 µM)	relative viability (RAF265 + AZD7762; first compound 0.1 µM)	relative viability (RAF265 + AZD7762; first compound 0.3162 µM)	relative viability (RAF265 + AZD7762; first compound 1 µM)	relative viability (Doramapimod + Navitoclax; first compound 0.02 µM)	relative viability (Doramapimod + Navitoclax; first compound 0.06325 µM)	relative viability (Doramapimod + Navitoclax; first compound 0.2 µM)	relative viability (Doramapimod + Navitoclax; first compound 0.6325 µM)	relative viability (Doramapimod + Navitoclax; first compound 2 µM)	relative viability (IPA-3 + Dasatinib; first compound 0.2 µM)	relative viability (IPA-3 + Dasatinib; first compound 0.6325 µM)	relative viability (IPA-3 + Dasatinib; first compound 2 µM)	relative viability (IPA-3 + Dasatinib; first compound 6.325 µM)	relative viability (IPA-3 + Dasatinib; first compound 20 µM)	relative viability ([1]; first compound 0.02 µM)	relative viability ([1]; first compound 0.06325 µM)	relative viability ([1]; first compound 0.2 µM)	relative viability ([1]; first compound 0.6325 µM)	relative viability ([1]; first compound 2 µM)
HOP-62	0.572	0.553	0.462	0.482	0.422	1.1	1.1	1.17	1.04	1.05	0.807	0.577	0.71	0.589	0.67	0.369	0.483	0.497	0.524	0.485
LC-2-ad	0.848	0.933	0.914	0.721	0.669	0.399	0.342	0.377	0.422	0.357	0.616	0.537	0.662	0.611	0.615	0.521	0.467	0.502	0.529	0.529
LCLC-97TM1	0.203	0.323	0.259	0.167	0.0766	0.372	0.434	0.525	0.51	0.371	0.933	0.844	0.945	1.01	0.83	0.233	0.211	0.257	0.219	0.171
LK-2	0.506	0.432	0.537	0.448	0.371	0.731	0.757	0.695	0.72	0.741	0.261	0.27	0.222	0.28	0.282	0.515	0.576	0.54	0.518	0.413
LOU-NH91	0.756	0.71	0.687	0.631	0.551	0.683	0.588	0.627	0.63	0.452	0.628	0.568	0.573	0.542	0.697	0.531	0.564	0.535	0.528	0.509
LU99A	0.419	0.344	0.404	0.325	0.235	0.662	0.645	0.818	0.977	0.798	0.584	0.61	0.642	0.725	0.669	0.38	0.365	0.379	0.426	0.313
LXF-289	1.12	1.26	1.24	0.849	0.871	0.954	1	0.939	0.903	0.942	0.279	0.264	0.28	0.176	0.237	0.6	0.586	0.615	0.567	0.63
NCI-H23	0.309	0.263	0.228	0.182	0.169	0.905	0.794	0.763	0.882	0.832	0.598	0.795	0.861	0.724	0.617	0.458	0.485	0.482	0.52	0.568
NCI-H322M	0.55	0.717	0.493	0.381	0.404	1.12	1.16	1.16	1.33	1.2	0.228	0.248	0.248	0.309	0.264	0.458	0.492	0.483	0.554	0.486
NCI-H441	1.1	1.08	1.2	0.967	0.936	0.857		0.558	0.818	0.353	0.796	0.295	0.486	0.502	0.438	0.197	0.221	0.203	0.191	0.219
NCI-H460	0.586	0.666	0.775	0.598	0.38	1.12	1.01	1.14	1.13	1.01	0.757	0.45	0.422	0.539	0.363	0.197	0.195	0.208	0.279	0.141
NCI-H647	0.578	0.452	0.404	0.332	0.262	1.09	1.13	1.12	1.09	1.12	0.271	0.175	0.192	0.115	0.0437	0.346	0.335	0.375	0.404	0.345
NCI-H727	0.471	0.67	0.576	0.494	0.606	0.467	0.337	0.501	0.481	0.382	0.295	0.423	0.328	0.385	0.389	0.603	0.639	0.656	0.705	0.692
NCI-H838	0.865	0.953	0.964	1.03	0.841	1.16	1.19	1.26	1.32	1.12	0.32	0.234	0.291	0.319	0.328	0.218	0.217	0.203	0.225	0.199
NCI-H1355	0.816	0.668	0.772	0.68	0.515	0.943	0.947	0.956	0.923	0.867	0.774	0.719	0.714	0.695	0.594	0.412	0.373	0.413	0.385	0.368
NCI-H1395	0.403	0.382	0.422	0.419	0.393	1.17	1.12	1.1	1.12	1.06	0.408	0.42	0.385	0.44	0.466	0.67	0.6	0.64	0.58	0.583

Cell Line	relative viability (RAF265 + AZD7762; first compound 0.01 µM)	relative viability (RAF265 + AZD7762; first compound 0.03162 µM)	relative viability (RAF265 + AZD7762; first compound 0.1 µM)	relative viability (RAF265 + AZD7762; first compound 0.3162 µM)	relative viability (RAF265 + AZD7762; first compound 1 µM)	relative viability (Doramapimod + Navitoclax; first compound 0.02 µM)	relative viability (Doramapimod + Navitoclax; first compound 0.06325 µM)	relative viability (Doramapimod + Navitoclax; first compound 0.2 µM)	relative viability (Doramapimod + Navitoclax; first compound 0.6325 µM)	relative viability (Doramapimod + Navitoclax; first compound 2 µM)	relative viability (IPA-3 + Dasatinib; first compound 0.2 µM)	relative viability (IPA-3 + Dasatinib; first compound 0.6325 µM)	relative viability (IPA-3 + Dasatinib; first compound 2 µM)	relative viability (IPA-3 + Dasatinib; first compound 6.325 µM)	relative viability (IPA-3 + Dasatinib; first compound 20 µM)	relative viability ([1]; first compound 0.02 µM)	relative viability ([1]; first compound 0.06325 µM)	relative viability ([1]; first compound 0.2 µM)	relative viability ([1]; first compound 0.6325 µM)	relative viability ([1]; first compound 2 µM)
NCI-H1437	1.08	1.13	1.2	1.15	1.1	1.09	1.1	1.16	1.09	1.05	0.542	0.411	0.286	0.501	0.718	0.337	0.31	0.278	0.368	0.304
NCI-H1651	0.508	0.497	0.401	0.406	0.365	0.624	0.911	0.996	1.04	1.06	0.652	0.304	0.486	0.574	0.458	0.478	0.523	0.47	0.511	0.516
NCI-H1666	0.935	0.882	0.837	0.854	0.825	0.991	0.838	1.04	0.918	0.789	0.908	0.825	0.871	0.836	0.855	0.734	0.641	0.69	0.704	0.613
NCI-H1734	0.545	0.516	0.437	0.325	0.217	0.723	0.799	0.692	0.77	0.572	0.564	0.486	0.459	0.507	0.444	0.204	0.308	0.314	0.299	0.27
NCI-H1755	0.548	0.475	0.483	0.405	0.425	0.997	1	1	1.06	0.968	0.512	0.44	0.371	0.426	0.472	0.478	0.484	0.444	0.416	0.418
NCI-H1792	0.638	0.568	0.475	0.11	0.0984	0.601	0.809	0.672	0.617	0.577	1.01	0.81	0.807	0.895	1.03	0.701	0.645	0.598	0.596	0.546
NCI-H1793	0.413	0.572	0.332	0.197	0.132	0.545	0.303	0.378	0.416	0.502	0.442	0.325	0.362	0.381	0.43	0.317	0.293	0.283	0.287	0.273
NCI-H1915	0.649	0.655	0.663	0.602	0.41	0.843	0.838	0.85	0.801	0.761	0.317	0.297	0.312	0.316	0.334	0.507	0.547	0.469	0.525	0.487
NCI-H1944	0.75	0.617	0.512	0.448	0.365	1	1.11	1.05	1.17	1.08	0.213	0.198	0.244	0.314	0.234	0.321	0.306	0.322	0.307	0.271
NCI-H1975	0.694	0.667	0.635	0.484	0.406	1.2	1.19	0.991	1.16	0.981	0.466	0.368	0.337	0.334	0.299	0.583	0.576	0.488	0.596	0.512
NCI-H1993	0.784	0.82	0.791	0.602	0.635	0.952	0.749	0.966	0.918	0.834	0.567	1.77	0.63	0.364	0.585	0.641	0.58	0.621	0.596	0.504
NCI-H2085	1.06	0.879	1.05	1.1	0.857	1.22	1.05	1.07	1.3	1.2	0.224	0.256	0.267	0.23	0.266	0.525	0.527	0.5	0.52	0.529
NCI-H2087	1.19	1.18	1.02	1.2	1.12	0.955	0.98	0.933	1.1	0.888	1.16	0.663	0.865	0.822	0.777	0.237	0.215	0.293	0.27	0.219
NCI-H2126	1.04	0.962	0.968	0.935	0.848	0.791	0.843	0.743	0.881	0.738	0.709	0.58	0.68	0.633	0.545	0.378	0.352	0.373	0.336	0.326
NCI-H2170	0.876	0.72	0.761	0.363	0.615	0.512	0.495	0.539	0.601	0.478	0.573	0.339	0.467	0.614	0.613	0.381	0.421	0.413	0.387	0.377
